Assay results from patent US9587225B2, “Low-molecular-compound for improving production, maintenance and proliferation of pluripotent stem cells, composition comprising the same, and culture method” (KOREA RESEARCH INSTITUTE OF BIOSCIENCE AND BIOTECHNOLOGY, priority 2012, dated 2017).

How the values were obtained:
[1] = test system: human skin fibroblasts; test: Cell growth (total number of cells) during reprogramming culture; assay type: cell-based
Source text: In still another example of the present invention, whether the novel compound RSC-133 has the effect of promoting the growth and proliferation of cells in a culture process for inducing reprogramming was examined by measuring the total number of cells at various time points (FIG. 11). […] In addition, a change in the proliferation of cells during a culture process for inducing reprogramming was examined by a BrdU assay.
FIG. 11 is a graph showing the effect of RSC-133 on cell growth during a reprogramming process. The results were obtained in the same manner as those in FIG. 10. The values shown on the graph are mean values. The data ate are expressed as mean±SD (n=3).
FIG. 12 is a graph showing the results of examining the effect of RSC-133 on the growth of human skin fibroblasts or human skin fibroblasts infected with a reprogramming factor (OSKM) virus. The values shown on the graph are mean values. The data are mean±SD (n=3).
In addition, the growth rate of cells is associated with the self-renewal ability of embryonic stem cells. Thus, whether the novel compound RSC-133 can promote cell growth during reprogramming was examined. As a result, it could be seen that when reprogramming was induced while the cells were treated with RSC-133, the growth rate of the cells increased by about 1.7 times compared to that of the control group (FIG. 11). […]

[2] = test system: H3K9ace; test: H3K9 acetylation during reprogramming (immunocytochemistry, Western blot); assay type: cell-based, human
Description: The left panel is a set of photographs showing the results obtained by inducing the reprogramming of human skin fibroblasts, culturing the cells for 10 days in the presence or absence of RSC-133, and then analyzing the cells by immunocytochemistry using monoclonal antibodies for H3K9ace and an undifferentiation marker (Nanog) (scale bar=200 μm). […] H3 protein was used as an internal control.
For immunostaining, cells were seeded on Matrigel-coated 4-well Lab-Tek chamber slides (Nunc, Naperville, Ill.) and cultured for 5 days under the indicated conditions. The cells were fixed in 4% paraformaldehyde at room temperature for 15 minutes, and then washed with PBS/0.2% BSA. Next, the cells were passed through PBS/0.2% BSA/0.1% Triton X-100 for 15 minutes, and then incubated with 4% normal donkey serum (Molecular Probes, Eugene, Oreg., USA) in PBS/0.2% BSA at room temperature for 1 hour. The cells were diluted with PBS/0.2% BSA, and then reacted with primary antibody at 4° C. for 2 hours. After washing, the cells were reacted with FITC- or Alexa594-conjugated secondary antibody (Invitrogen) in PBS/0.2% BSA at room temperature for 1 hour. The cells were counter-stained with 10 μg/ml DAPI.
Most of various low-molecular-weight compounds known to be involved in the reprogramming process are involved genome methylation patterns, histone acetylation patterns or major signaling mechanisms. […]

[3] = test system: Nanog, Oct4, Rex1, p53, p21 and p16; test: Expression of pluripotency markers and p53, p21, p16 during reprogramming (real-time RT-PCR, immunostaining); assay type: cell-based, human
Description: In still another example of the present invention, in order to examine whether the novel compound RSC-133 can promote kinetics in a culture process for reprogramming to shorten the time required for the induction of reprogramming, the expression patterns of pluripotency-specific markers were analyzed at various time points.
Total RNA was isolated from the produced cells using RNeasy Mini kit (Qiagen, Valencia, Calif.), and then reverse-transcribed using SuperScript First-strand synthesis system kit (Invitrogen) according to the manufacturer's instruction. […]
In order to examine whether RSC-133 can increase the rate of reprogramming, the relative levels of mRNA expressed during the reprogramming process were measured. […] Thus, it can be seen that RSC-133 can increase the efficiency of reprogramming and also can be involved in the reprogramming process to stimulate kinetics.

NC(=O)c1cccc(NC(=O)/C=C/c2c[nH]c3ccccc23)c1 [RSC-133, 3-[3-(1H-indol-3-yl)-acrylamido]-benzamide]
growth of cells, reprogramming not induced ([1]; human skin fibroblasts or OSKM-transfected fibroblasts, reprogramming not induced (FIG. 12)): increased the growth of the cells
increase of growth rate of the cells during reprogramming ([1]; reprogramming induced, compared to control group (FIG. 11)): about 1.7 times
H3K9ace level by Western blot ([2]; H3 as internal control (FIG. 18 right)): The same results were also obtained
ratio of undifferentiated cells having a high H3K9ace level (immunocytochemistry) ([2]; cultured 10 days in presence or absence of RSC-133 (FIG. 18 left)): higher in the test group treated with RSC-133 than in the control group
time of appearance of pluripotency-specific markers (Nanog, Tra1-81, Oct4, Rex1) ([3]; immunostaining and real-time PCR at various time points (FIGS. 15, 16)): appeared early than that in an untreated control group
expression levels of undifferentiation markers Nanog, Oct4 and Rex1 ([3]; real-time RT-PCR, cells harvested at 5-day intervals, presence vs absence of RSC-133 (FIG. 16)): relatively increased
expression levels of p53, p21 and p16 ([3]; real-time RT-PCR, presence vs absence of RSC-133 (FIG. 16 lower panel)): relatively inhibited
